Assays:
[1] = Pharmacokinetics in plasma; type: in vivo; conditions: given in combination with JAK/HDACi, C57BL/6 mice plasma, 1, 7, 21, 48 h, i.p.
Protocol: Blood samples were collected from C57BL/6 mice treated with regorafenib and JAK-HDACi at 1, 7, 21, or 48 h after treatment, and plasma samples were assayed. The quantifications of regorafenib and JAK-HDACi in plasma were conducted using a Shimadzu LC-20AD LC (Shimadzu, OR) and an API5000 MS (Sciex, MA). For sample preparation, a one-step protein precipitation with acetonitrile was used. Plasma (10 µL) was added into 250 µL of acetonitrile. Chromatographic separation was performed using an ACE Excel 3 C18 column. The mobile phase was (A) 0.1% formic acid in water and (B) 0.1% formic acid in acetonitrile utilizing a gradient from 20% to 75%. The injection volume was 10 µL. The run time was 5 min, and the retention time was 2.4 min. Standard curves for regorafenib and JAK-HDACi in plasma were prepared in the ranges of 5–15,000 ng/ml.

HT29 cells = experiment: Annexin V-FITC/PI apoptosis flow cytometry; type: cell-based; conditions: HT29, 72 h, average of three experiments
Protocol: (§1) To evaluate the effect of drugs on apoptosis, cells were stained by use of TACS Annexin V-FITC apoptosis detection kit obtained from R&D Systems (Minneapolis, MN), following the manufacturer’s protocol. CRC cells (HCT116, RKO, HT29, and SW480) were seeded at 1 × 10^5/dish in triplicates in four groups: vehicle, JAK/HDACi, regorafenib, and the combination for 72 h. The cells were analyzed with a BD LSR FortessaTM Flow Cytometer (BD Biosciences, Mountain View, CA).

HCT116 cells = experiment: Annexin V-FITC/PI apoptosis flow cytometry; type: cell-based; conditions: HCT116, 72 h, average of three experiments
Protocol: as §1

SW480 cells [2] = experiment: Annexin V-FITC/PI apoptosis flow cytometry; type: cell-based; conditions: SW480, 72 h, average of three experiments
Protocol: as §1

RKO cells = experiment: Annexin V-FITC/PI apoptosis flow cytometry; type: cell-based; conditions: 72 h, average of three experiments
Protocol: as §1

[3] = system: luciferase-tagged HT29 cells; experiment: HT29 luciferase experimental metastasis model; type: in vivo; conditions: NSG mice
Protocol: To assess the effect of JAK/HDACi, regorafenib and their combination drug treatments on metastasis, an experiment was performed with 6-week-old NOD/SCID/IL2γ receptor-null (NSG) mice (male and female) as described. All procedures and experimental protocols were approved and conducted in compliance (IACUC-21501). For metastasis experiments, as described previously, tail vein injections with HT29 cells (0.5 × 10^6) carrying a luciferase expression construct were conducted. Mice were imaged at 0, 10, and 30 days post injection, and treated with vehicle or drugs (with JAK/HDACi, regorafenib and their combination). Drug treatments were performed as described in PDX experiment. Bioluminescence imaging was accomplished using an IVIS Lumina III instrument (Perkin Elmer, Waltham, MA), and mice were injected with luciferin 10 min prior to imaging. After 30 days, mouse lungs and kidneys were dissected, and ex vivo analyses were performed.

SW480 cells [4] = experiment: Cell cycle analysis by flow cytometry; type: cell-based; conditions: SW480, 24 h, 500 nM
Protocol: To evaluate the effect of drugs on cell cycle arrest, SW480 and RKO cells were seeded, 1 × 10^6/dish in triplicates in four groups: vehicle, JAK/HDACi, regorafenib, and their combination (for 24 h, following procedure described in our previous study. Cell cycle analysis was performed using BD LSR FortessaTM Flow Cytometer (BD Biosciences, Mountain View, CA).

[5] = mouse, in vivo
Source text: Upon completion of the experiment for 30 days in HT29 metastasis model, before mice were sacrificed, blood was collected and serum was isolated to evaluate liver and kidney functions to assess toxicity with JAK/HDACi and regorafenib alone, and their combination treatment, using a comprehensive Panel EWrap (Cat# 6330-COMP) by a DRY CHEM 4000 Analyzer.

IGF1R = molecular target: T1, IGF1R (Homo sapiens, UniProt P08069); experiment: PamStation PTK kinomic profiling; type: cell-based; conditions: change from DMSO control
T1 construct: cell lysates were prepared; endogenous in cells; host or cells: SW480 and RKO
T1 sequence (P08069 31-1367): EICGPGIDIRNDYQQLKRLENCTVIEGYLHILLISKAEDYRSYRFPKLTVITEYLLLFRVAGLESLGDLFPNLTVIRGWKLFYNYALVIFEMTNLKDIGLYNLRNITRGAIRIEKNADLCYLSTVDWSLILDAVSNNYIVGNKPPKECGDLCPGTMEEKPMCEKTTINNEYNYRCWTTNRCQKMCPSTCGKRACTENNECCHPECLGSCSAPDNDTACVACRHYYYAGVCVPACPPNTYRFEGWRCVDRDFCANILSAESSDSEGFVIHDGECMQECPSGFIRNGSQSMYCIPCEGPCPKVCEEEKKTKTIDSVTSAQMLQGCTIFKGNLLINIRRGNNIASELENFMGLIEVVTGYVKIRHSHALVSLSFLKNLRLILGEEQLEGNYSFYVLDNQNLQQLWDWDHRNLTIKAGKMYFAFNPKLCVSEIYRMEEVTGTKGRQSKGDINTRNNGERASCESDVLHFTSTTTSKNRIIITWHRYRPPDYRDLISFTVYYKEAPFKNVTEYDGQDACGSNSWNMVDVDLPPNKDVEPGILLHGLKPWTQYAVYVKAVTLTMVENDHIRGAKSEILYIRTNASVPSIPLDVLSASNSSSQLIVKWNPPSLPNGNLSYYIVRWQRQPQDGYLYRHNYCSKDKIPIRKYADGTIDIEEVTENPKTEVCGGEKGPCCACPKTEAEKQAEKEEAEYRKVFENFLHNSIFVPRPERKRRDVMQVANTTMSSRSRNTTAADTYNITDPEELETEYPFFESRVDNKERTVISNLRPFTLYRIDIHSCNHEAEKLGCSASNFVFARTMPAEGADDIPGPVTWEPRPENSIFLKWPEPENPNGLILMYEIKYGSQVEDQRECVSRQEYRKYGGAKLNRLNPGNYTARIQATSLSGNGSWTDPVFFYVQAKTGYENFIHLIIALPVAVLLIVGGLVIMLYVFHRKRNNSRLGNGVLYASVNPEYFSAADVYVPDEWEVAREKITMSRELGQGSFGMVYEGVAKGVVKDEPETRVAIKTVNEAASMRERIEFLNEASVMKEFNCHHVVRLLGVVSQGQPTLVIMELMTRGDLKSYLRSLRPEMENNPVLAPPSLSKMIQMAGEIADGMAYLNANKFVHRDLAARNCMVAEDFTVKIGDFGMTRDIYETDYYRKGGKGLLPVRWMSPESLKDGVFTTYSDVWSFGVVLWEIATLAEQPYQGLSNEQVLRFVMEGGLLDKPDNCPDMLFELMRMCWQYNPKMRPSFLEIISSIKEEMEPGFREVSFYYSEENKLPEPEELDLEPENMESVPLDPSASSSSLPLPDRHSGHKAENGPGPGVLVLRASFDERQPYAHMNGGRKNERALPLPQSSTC
Protocol: (§2) SW480 and RKO cells were treated with vehicle (DMSO), JAK/HDACi, regorafenib, and their combination for 45 min, and cell lysates were prepared. Tyrosine kinase (PTK) activity (kinomic) profiling was performed using the PamStation®12 platform (PamGene, BV, The Netherlands). As per standard kinomic protocol as described previously. Whole-chip comparative analysis (BioNavigator Upkin PTK v8.0) was performed between groups generating Mean Kinase Statistics (direction of change).

FLT1 = molecular target: T2, FLT1 (Homo sapiens, UniProt P17948); experiment: PamStation PTK kinomic profiling; type: cell-based; conditions: change from DMSO control
T2 construct: endogenous in cells; host or cells: SW480 and RKO
Protocol: as §2

EphA5 = molecular target: T3, EphA5 (Homo sapiens, UniProt P54756); experiment: PamStation PTK kinomic profiling; type: cell-based; conditions: change from DMSO control
T3 construct: cell lysates were prepared; endogenous in cells; host or cells: SW480 and RKO
Protocol: as §2

JAK1~b = molecular target: T4, JAK1~b (Homo sapiens, UniProt P23458); experiment: PamStation PTK kinomic profiling; type: cell-based; conditions: change from DMSO control
T4 construct: cell lysates were prepared; endogenous in cells; host or cells: SW480 and RKO
Protocol: as §2

FLT4 = molecular target: T5, FLT4 (Homo sapiens, UniProt P35916); experiment: PamStation PTK kinomic profiling; type: cell-based; conditions: change from DMSO control
T5 construct: cell lysates were prepared; endogenous in cells; host or cells: SW480 and RKO
T5 sequence (P35916 25-1363): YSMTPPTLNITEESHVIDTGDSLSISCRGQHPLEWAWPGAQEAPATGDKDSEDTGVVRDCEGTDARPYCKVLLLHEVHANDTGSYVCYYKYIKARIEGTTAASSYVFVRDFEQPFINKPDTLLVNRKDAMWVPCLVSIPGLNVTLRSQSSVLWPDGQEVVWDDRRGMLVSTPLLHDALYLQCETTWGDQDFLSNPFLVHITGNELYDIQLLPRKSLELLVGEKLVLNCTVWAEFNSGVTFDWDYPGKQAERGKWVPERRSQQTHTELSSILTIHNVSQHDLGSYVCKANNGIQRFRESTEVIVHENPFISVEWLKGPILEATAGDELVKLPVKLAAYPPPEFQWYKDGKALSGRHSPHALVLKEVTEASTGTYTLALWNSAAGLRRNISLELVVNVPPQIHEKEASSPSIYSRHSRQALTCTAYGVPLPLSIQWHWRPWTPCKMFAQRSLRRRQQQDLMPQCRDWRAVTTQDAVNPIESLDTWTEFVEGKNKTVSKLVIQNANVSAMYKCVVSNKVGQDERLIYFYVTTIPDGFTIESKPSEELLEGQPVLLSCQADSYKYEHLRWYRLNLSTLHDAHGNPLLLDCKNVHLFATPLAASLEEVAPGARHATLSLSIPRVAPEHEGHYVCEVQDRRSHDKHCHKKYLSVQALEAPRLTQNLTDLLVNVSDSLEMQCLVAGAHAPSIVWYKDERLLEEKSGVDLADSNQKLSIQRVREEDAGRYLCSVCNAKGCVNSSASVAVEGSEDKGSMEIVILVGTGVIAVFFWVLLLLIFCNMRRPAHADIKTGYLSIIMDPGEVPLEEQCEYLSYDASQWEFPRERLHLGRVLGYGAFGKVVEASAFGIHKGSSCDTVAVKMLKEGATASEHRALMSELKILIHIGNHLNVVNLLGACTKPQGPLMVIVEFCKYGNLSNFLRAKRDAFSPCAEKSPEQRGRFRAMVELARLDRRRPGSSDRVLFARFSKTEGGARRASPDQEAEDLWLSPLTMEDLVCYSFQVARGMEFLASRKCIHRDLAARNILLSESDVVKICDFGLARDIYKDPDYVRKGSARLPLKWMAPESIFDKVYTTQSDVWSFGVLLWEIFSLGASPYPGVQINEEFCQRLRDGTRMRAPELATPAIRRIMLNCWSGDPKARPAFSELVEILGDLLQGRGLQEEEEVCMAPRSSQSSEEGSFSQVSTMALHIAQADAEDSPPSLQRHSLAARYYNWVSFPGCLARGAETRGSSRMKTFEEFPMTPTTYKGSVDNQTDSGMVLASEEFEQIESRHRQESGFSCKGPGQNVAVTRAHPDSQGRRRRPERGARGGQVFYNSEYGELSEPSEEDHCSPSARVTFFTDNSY
Protocol: as §2

HER3 = molecular target: T6, HER3 (Homo sapiens, UniProt P21860); experiment: PamStation PTK kinomic profiling; type: cell-based; conditions: change from DMSO control
T6 construct: cell lysates were prepared; endogenous in cells; host or cells: SW480 and RKO
Protocol: as §2

EphA4 = molecular target: T7, EphA4 (Homo sapiens, UniProt P54764); experiment: PamStation PTK kinomic profiling; type: cell-based; conditions: change from DMSO control
T7 construct: cell lysates were prepared; endogenous in cells; host or cells: SW480 and RKO
Protocol: as §2

EphA2 = molecular target: T8, EphA2 (Homo sapiens, UniProt P29317); experiment: PamStation PTK kinomic profiling; type: cell-based; conditions: change from DMSO control
T8 construct: cell lysates were prepared; endogenous in cells; host or cells: SW480 and RKO
Protocol: as §2

PDGFR[beta] = molecular target: T9, PDGFR[beta] (Homo sapiens, UniProt P09619); experiment: PamStation PTK kinomic profiling; type: cell-based; conditions: change from DMSO control
T9 construct: cell lysates were prepared; endogenous in cells; host or cells: SW480 and RKO
T9 sequence (P09619 33-1106): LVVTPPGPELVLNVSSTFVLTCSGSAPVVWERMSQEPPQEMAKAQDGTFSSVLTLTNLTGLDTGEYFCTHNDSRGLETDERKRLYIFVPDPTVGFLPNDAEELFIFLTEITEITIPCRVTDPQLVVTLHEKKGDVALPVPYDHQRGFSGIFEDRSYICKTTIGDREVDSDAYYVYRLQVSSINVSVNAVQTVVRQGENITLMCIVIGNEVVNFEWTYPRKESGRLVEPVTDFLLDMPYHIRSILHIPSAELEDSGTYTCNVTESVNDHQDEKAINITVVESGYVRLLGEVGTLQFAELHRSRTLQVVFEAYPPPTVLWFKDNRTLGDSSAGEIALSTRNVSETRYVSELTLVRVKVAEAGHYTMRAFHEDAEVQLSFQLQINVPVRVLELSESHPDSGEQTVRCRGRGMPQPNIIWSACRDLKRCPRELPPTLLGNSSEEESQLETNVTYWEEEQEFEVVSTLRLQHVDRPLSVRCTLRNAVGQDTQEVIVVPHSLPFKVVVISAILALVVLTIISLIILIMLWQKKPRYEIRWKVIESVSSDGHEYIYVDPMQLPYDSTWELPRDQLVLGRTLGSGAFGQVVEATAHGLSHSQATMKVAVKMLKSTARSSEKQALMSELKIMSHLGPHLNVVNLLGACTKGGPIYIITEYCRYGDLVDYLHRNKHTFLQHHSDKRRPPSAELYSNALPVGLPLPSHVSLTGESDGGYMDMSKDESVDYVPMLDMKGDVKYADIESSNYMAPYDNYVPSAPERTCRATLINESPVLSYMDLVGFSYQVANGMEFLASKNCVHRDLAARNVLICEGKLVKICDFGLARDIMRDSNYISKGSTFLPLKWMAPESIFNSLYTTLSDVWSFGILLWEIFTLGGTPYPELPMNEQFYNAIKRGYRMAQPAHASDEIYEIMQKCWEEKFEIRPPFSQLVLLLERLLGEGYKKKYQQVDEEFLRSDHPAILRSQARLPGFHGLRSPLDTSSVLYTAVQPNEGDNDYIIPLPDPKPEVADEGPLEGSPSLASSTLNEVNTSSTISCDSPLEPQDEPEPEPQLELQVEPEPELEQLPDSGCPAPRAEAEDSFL
Protocol: as §2

FAK1 = molecular target: T10, FAK1 (Homo sapiens, UniProt Q05397); experiment: PamStation PTK kinomic profiling; type: cell-based; conditions: change from DMSO control
T10 construct: cell lysates were prepared; endogenous in cells; host or cells: SW480 and RKO
T10 sequence (Q05397 whole entry): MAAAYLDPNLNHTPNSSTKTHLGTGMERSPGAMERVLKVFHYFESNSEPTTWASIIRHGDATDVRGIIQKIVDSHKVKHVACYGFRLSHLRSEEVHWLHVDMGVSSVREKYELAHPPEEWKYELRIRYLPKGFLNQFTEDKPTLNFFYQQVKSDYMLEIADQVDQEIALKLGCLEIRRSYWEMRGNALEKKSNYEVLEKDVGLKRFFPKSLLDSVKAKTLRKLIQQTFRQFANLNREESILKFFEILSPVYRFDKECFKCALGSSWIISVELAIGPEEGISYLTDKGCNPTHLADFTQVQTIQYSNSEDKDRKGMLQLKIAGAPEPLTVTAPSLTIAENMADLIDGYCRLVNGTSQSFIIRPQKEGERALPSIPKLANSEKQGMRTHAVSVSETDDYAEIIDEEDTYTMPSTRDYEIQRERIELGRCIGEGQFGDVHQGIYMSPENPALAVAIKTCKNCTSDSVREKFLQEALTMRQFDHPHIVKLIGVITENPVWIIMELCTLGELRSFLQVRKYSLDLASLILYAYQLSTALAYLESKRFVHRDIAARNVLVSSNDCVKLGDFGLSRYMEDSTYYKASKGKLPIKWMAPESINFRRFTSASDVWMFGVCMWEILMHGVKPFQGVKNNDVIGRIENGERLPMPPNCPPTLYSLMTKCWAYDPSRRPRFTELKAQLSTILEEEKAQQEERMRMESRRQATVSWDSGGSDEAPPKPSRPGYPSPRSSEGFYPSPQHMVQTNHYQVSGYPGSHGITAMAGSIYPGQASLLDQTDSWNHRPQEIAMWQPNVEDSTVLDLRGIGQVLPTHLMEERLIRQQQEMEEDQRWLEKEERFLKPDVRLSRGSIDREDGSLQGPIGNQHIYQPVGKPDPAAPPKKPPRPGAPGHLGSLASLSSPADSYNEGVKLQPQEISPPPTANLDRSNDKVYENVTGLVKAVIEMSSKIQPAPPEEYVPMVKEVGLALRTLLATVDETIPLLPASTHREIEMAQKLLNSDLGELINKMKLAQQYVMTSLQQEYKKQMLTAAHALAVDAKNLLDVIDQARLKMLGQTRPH
Protocol: as §2

FAK2 = molecular target: T11, FAK2 (Homo sapiens, UniProt Q14289); experiment: PamStation PTK kinomic profiling; type: cell-based; conditions: RKO, 45 min, change from DMSO control
T11 construct: cell lysates were prepared; endogenous in cells; host or cells: SW480 and RKO
Protocol: as §2

## CNC(=O)c1cc(Oc2ccc(NC(=O)Nc3ccc(Cl)c(C(F)(F)F)c3)c(F)c2)ccn1 [regorafenib]
[1]
  bioavailability of regorafenib: increased
HT29 cells
  percentage of apoptotic cells (sum of early and late apoptotic cells): 5.16%
HCT116 cells
  percentage of apoptotic cells (sum of early and late apoptotic cells): 13.62%
SW480 cells [2]
  percentage of apoptotic cells (sum of early and late apoptotic cells): 11.17%
RKO cells
  percentage of apoptotic cells (sum of early and late apoptotic cells): 1.18%
[3]
  bioluminescence intensity on day 30th: reduced intensities
SW480 cells [4]
  cells arrested at the G0-G1 phase: 39.1%
  cells in synthesis (S) phase: 50%
[5]
  ALT: 16 U/L
  Albumin/Globulin: 1.0
  Creatinine: 0.4 mg/dL
  Globulin: 2.6 g/dL
  Total Billirubin: 0.5 mg/dL
  toxicity by serum analysis (liver and kidney functions): no evident toxicity
IGF1R; RKO, 45 min
  Mean Kinase Statistic, IGF1R: -0.129
IGF1R; SW480, 45 min
  Mean Kinase Statistic, IGF1R: -0.222
FLT1; RKO, 45 min
  Mean Kinase Statistic, FLT1: 0.207
FLT1; SW480, 45 min
  Mean Kinase Statistic, FLT1: -0.166
EphA5; RKO, 45 min
  Mean Kinase Statistic, EphA5: -0.050
EphA5; SW480, 45 min
  Mean Kinase Statistic, EphA5: -0.324
JAK1~b; RKO, 45 min
  Mean Kinase Statistic, JAK1~b: 0.393
JAK1~b; SW480, 45 min
  Mean Kinase Statistic, JAK1~b: -0.185
FLT4; RKO, 45 min
  Mean Kinase Statistic, FLT4: 0.133
FLT4; SW480, 45 min
  Mean Kinase Statistic, FLT4: -0.234
HER3; RKO, 45 min
  Mean Kinase Statistic, HER3: 0.047
HER3; SW480, 45 min
  Mean Kinase Statistic, HER3: -0.158
EphA4; RKO, 45 min
  Mean Kinase Statistic, EphA4: -0.122
EphA4; SW480, 45 min
  Mean Kinase Statistic, EphA4: -0.155
EphA2; RKO, 45 min
  Mean Kinase Statistic, EphA2: 0.225
EphA2; SW480, 45 min
  Mean Kinase Statistic, EphA2: -0.097
PDGFR[beta]; RKO, 45 min
  Mean Kinase Statistic, PDGFR[beta]: 0.140
PDGFR[beta]; SW480, 45 min
  Mean Kinase Statistic, PDGFR[beta]: -0.203
FAK1; RKO, 45 min
  Mean Kinase Statistic, FAK1: 0.052
FAK1; SW480, 45 min
  Mean Kinase Statistic, FAK1: -0.131
FAK2
  Mean Kinase Statistic, FAK2: -0.049

— publication PMC11238352, “Combination of dual JAK/HDAC inhibitor with regorafenib synergistically reduces tumor growth, metastasis, and regorafenib-induced toxicity in colorectal cancer” (Journal of Experimental & Clinical Cancer Research : CR, 2024)
